According to patent US11071731B2, “Allosteric modulators of the mu opioid receptor” (Chiromics, LLC, priority 2017, dated 2021):

Legend:
[1] = biological target: T1, mu opioid receptor (MOR) (Homo sapiens, UniProt P35372); experiment: PathHunter β-arrestin recruitment assay, PAM mode with EC20 endomorphin-1; assay type: cell-based; conditions: for EC50: read-out: β-arr. EC50; for allosteric activity for β-arrestin recruitment: EC20 endomorphin-1 concentration of 4.5 nM
Outline: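 Enzyme fragment complementation read-out: β-gal ED fragment fused to receptor, EA fused to β-arrestin, recruitment restoring β-gal activity detected by chemiluminescence. EC50 and percent maximal response derived for each compound.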

[2] = biological target: T1, mu opioid receptor (MOR); experiment: Hit Hunter cAMP signaling assay (adenylyl cyclase inhibition), PAM mode with EC20 endomorphin-1; assay type: cell-based; conditions: for allosteric activity for cAMP signaling: EC20 endomorphin-1 concentration of 0.45 nM
[3] = maximal response for β-arrestin recruitment
[4] = adenylyl cyclase inhibition, read-out: cAMP EC50
[5] = maximal response for adenylyl cyclase inhibition
[6] = maximal response for β-arrestin recruitment, Table 3
[7] = β-arrestin recruitment, Table 3
[8] = cAMP EC50 (nM), adenylyl cyclase inhibition, Table 3
[9] = cAMP EC50, adenylyl cyclase inhibition
[10] = maximal response for adenylyl cyclase inhibition, Table 3

T1 sequence (P35372 whole entry, the tested form may be a part): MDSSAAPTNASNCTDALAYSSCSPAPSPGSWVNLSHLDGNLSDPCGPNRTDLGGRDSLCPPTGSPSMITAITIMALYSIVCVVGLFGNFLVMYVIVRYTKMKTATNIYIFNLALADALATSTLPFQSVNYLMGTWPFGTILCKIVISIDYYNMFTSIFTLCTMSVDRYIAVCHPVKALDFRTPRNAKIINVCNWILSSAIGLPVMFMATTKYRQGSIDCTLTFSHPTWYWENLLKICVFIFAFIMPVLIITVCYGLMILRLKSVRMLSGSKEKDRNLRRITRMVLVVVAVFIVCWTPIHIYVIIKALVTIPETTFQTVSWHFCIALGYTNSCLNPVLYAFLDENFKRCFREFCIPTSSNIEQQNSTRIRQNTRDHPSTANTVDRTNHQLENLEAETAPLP

Row | SMILES | β-arr Max. Resp. [1, 3] | EC50 ([1]; β-arrestin recruitment) | EC50 [2, 4] | cAMP Max. Resp. [2, 5] | EC50 [2, 9] | also measured
1 | CC1CC(c2cccc(C(F)(F)F)n2)N(c2nc(Cl)ncc2F)C1 (single isomer, unassigned) [compound 221] | D (D represents a maximal response of < 40%) | > 2100 nM | > 2100 nM | D (D represents a maximal response of < 40%) |  | 
2 | CC1CCN(S(=O)(=O)c2ccc(Cl)cc2)C1c1ccc(Br)c(F)c1 (mixture of isomers) [Compound 92] | F (F represents a maximal response of > 60%) | 700 to 2100 nM | > 2100 nM | D (D represents a maximal response of < 40%) |  | 
3 | O=S(=O)(c1ccc(Cl)cc1)N1CCCCC1c1ccc(Cl)c(C(F)(F)F)c1 (single isomer, unassigned) [compound 220] | F (F represents a maximal response of > 60%) | > 2100 nM | 700 to 2100 nM | D (D represents a maximal response of < 40%) |  | 
4 | COc1ccc(C2CCCCN2S(=O)(=O)c2ccccc2)cc1Br (stereo not drawn) [compound 14] | F (F represents a maximal response of > 60%) | > 2100 nM |  | E (E represents a maximal response of 40-60%) | > 2100 nM | allosteric activity for β-arrestin recruitment [1]: silent allosteric activity; allosteric activity for β-arrestin recruitment ([1]; listed as Compound No. 14): dual silent allosteric modulation; β-arr. Max Resp. [1, 6]: 111; EC50 [1, 7]: 13200 nM; allosteric activity for cAMP signaling [2]: silent allosteric activity; allosteric activity for cAMP signaling ([2]; listed as Compound No. 14): dual silent allosteric modulation; EC50 [2, 8]: 9610 nM; cAMP Max Resp. [2, 10]: 43
5 | Fc1ccc(C2CCCCN2c2nc(Cl)ncc2F)cc1 (stereo not drawn) [compound 127] | F (F represents a maximal response of > 60%) | < 700 nM |  | E (E represents a maximal response of 40-60%) | 700 to 2100 nM | 
6 | COc1ccc(C2CC(C)CN2c2nc(Cl)ncc2F)cc1Br (stereo not drawn) [compound 237] | E (E represents a maximal response of 40-60%) | > 2100 nM | > 2100 nM | D (D represents a maximal response of < 40%) |  | 
7 | Fc1cc(C2CCCCN2c2nc(Cl)ncc2F)cc(C(F)(F)F)c1 (single isomer, unassigned) [compound 423] |  | < 700 nM |  |  | < 700 nM | β-arr Max. Resp. ([1]; maximal response, β-arrestin recruitment): D (D represents a maximal response of < 40%); cAMP Max. Resp. ([2]; maximal response, adenylyl cyclase inhibition): D (D represents a maximal response of < 40%)
8 | CC1CCN(S(=O)(=O)c2ccc(Cl)cc2)C1c1ccc(F)cc1 (mixture of isomers) [Compound 95] | F (F represents a maximal response of > 60%) | > 2100 nM | > 2100 nM | D (D represents a maximal response of < 40%) |  | 
9 | FC(F)(F)c1cccc(C2CCCCN2c2nccc(Cl)n2)c1 (stereo not drawn) [compound 258] | E (E represents a maximal response of 40-60%) | > 2100 nM |  | F (F represents a maximal response of > 60%) | > 2100 nM | 
10 | Fc1ccc(C2CCCCN2Cc2cccc(Cl)n2)cc1Cl (stereo not drawn) [compound 1] | F (F represents a maximal response of > 60%) | < 700 nM |  | F (F represents a maximal response of > 60%) | < 700 nM | β-arr. Max Resp. [1, 6]: 138; EC50 [1, 7]: 572 nM; EC50 [2, 8]: 186 nM; cAMP Max Resp. [2, 10]: 63
11 | CCCC1CCCN(c2nc(Cl)ncc2F)C1c1cccc(C(F)(F)F)c1 (stereo not drawn) [compound 247] | F (F represents a maximal response of > 60%) | > 2100 nM | > 2100 nM | E (E represents a maximal response of 40-60%) |  | 
12 | Fc1ccc(Cl)nc1N1CCCCC1c1cncnc1 (stereo not drawn) [compound 382] | D (D represents a maximal response of < 40%) | < 700 nM |  | D (D represents a maximal response of < 40%) | < 700 nM | 
13 | CN1CCN(c2nc(Cl)ncc2F)C(c2cccc(C(F)(F)F)c2)C1 (racemic) [Compound 282] | F (F represents a maximal response of > 60%) | 700 to 2100 nM | 700 to 2100 nM | D (D represents a maximal response of < 40%) |  | 
14 | O=S(=O)(c1ccc(Cl)cc1)N1C2CCC(C2)C1c1ccc(F)c(Br)c1 (stereo not drawn) [Compound 178] | F (F represents a maximal response of > 60%) | < 700 nM | 700 to 2100 nM | D (D represents a maximal response of < 40%) |  | 
15 | O=S(=O)(c1ccc(Cl)cc1)N1CCCCC1c1ccc(Cl)c(C(F)(F)F)c1 (racemic) [compound 64] | F (F represents a maximal response of > 60%) | 700 to 2100 nM | 700 to 2100 nM | D (D represents a maximal response of < 40%) |  | 
16 | FC(F)(F)c1cccc(C2CCCCN2Cc2ccc(Cl)c(Cl)c2)n1 (stereo not drawn) [compound 153] | F (F represents a maximal response of > 60%) | > 2100 nM |  | D (D represents a maximal response of < 40%) | > 2100 nM | 
17 | CC1CCN(S(=O)(=O)c2ccc(Cl)cc2)C1c1ccc2c(c1)CCO2 (mixture of isomers) [Compound 91] | F (F represents a maximal response of > 60%) | > 2100 nM | > 2100 nM | D (D represents a maximal response of < 40%) |  | 
18 | Cc1nccc(C2CCCCN2c2nc(Cl)ncc2F)n1 (stereo not drawn) [compound 377] | D (D represents a maximal response of < 40%) | < 700 nM |  | D (D represents a maximal response of < 40%) | < 700 nM | 
19 | COc1ccc(C2CC(C(F)(F)F)CN2S(=O)(=O)c2ccc(Cl)cc2)cc1Br (single isomer, unassigned) [Compound 120] | F (F represents a maximal response of > 60%) | > 2100 nM | > 2100 nM | F (F represents a maximal response of > 60%) |  | 
20 | Fc1cnc(Cl)nc1N1CCCCC1c1cnccc1C(F)(F)F (stereo not drawn) [compound 332] | D (D represents a maximal response of < 40%) | < 700 nM |  | D (D represents a maximal response of < 40%) | < 700 nM | 
21 | Cc1ccc(C2CCCCN2c2nc(Cl)ncc2F)cc1Br (stereo not drawn) [compound 281] | F (F represents a maximal response of > 60%) | 700 to 2100 nM |  | D (D represents a maximal response of < 40%) | < 700 nM | 
22 | CC1CCN(S(=O)(=O)c2ccc(Cl)cc2)C1c1ccc(F)c(Br)c1 (stereo not drawn) [Compound 106] | F (F represents a maximal response of > 60%) | 700 to 2100 nM | < 700 nM | D (D represents a maximal response of < 40%) |  | 
23 | Fc1cc(C2COCCN2c2nc(Cl)ncc2F)cc(C(F)(F)F)c1 (single isomer, unassigned) [Compound 347] | D (D represents a maximal response of < 40%) | < 700 nM | < 700 nM | D (D represents a maximal response of < 40%) |  | 
24 | Fc1cccc(CN2CCCCC2c2cccc(C(F)(F)F)n2)c1 (stereo not drawn) [compound 152] | F (F represents a maximal response of > 60%) | > 2100 nM |  | E (E represents a maximal response of 40-60%) | 700 to 2100 nM | 
